Measurements published in patent US20250283873A1, “NERVOUS SYSTEM CELL-CONTAINING SPHEROID, METHOD FOR PRODUCING NERVOUS SYSTEM CELL-CONTAINING SPHEROID, AND METHOD FOR EVALUATING TEST SUBSTANCE” (Ricoh Company, Ltd., priority 2024, published 2025).

What was measured:
[1] = system: 3D spheroid-cultured nerve cells (human iPSC-derived nerve cells and human-derived primary cultured astrocytes); assay: Calcium assay in 3D spheroid-cultured nerve cells (number of calcium spikes); assay type: cell-based; conditions: for relative value (log 2) of a change in number of the calcium spikes (DMSO = 0) / relative value of the number of the calcium spikes (DMSO set to 100%): cultured 5 weeks; for relative value (log 2) of a change in number of the calcium spikes (DMSO = 0): Experimental Examples 4-9, FIG. 4-9
Text: Human iPSC-derived nerve cells (Excitatory Neurons, Elixirgen Scientific, Inc.) and human-derived primary cultured astrocytes (ScienCell Research Laboratories, Inc.) were mixed so that the number of cells per well was 8,000 for the nerve cells and 8,000 for the astrocytes, and seeded on a plate for producing a spheroid. As the culture medium, Neurobasal Plus (Thermo Fisher Scientific, Inc.) to which B-27 Plus Supplement (Thermo Fisher Scientific, Inc.), Glutamax (Thermo Fisher Scientific, Inc.), 200 μM ascorbic acid (FUJIFILM Wako Pure Chemical Corporation), and a 10% Neuron Culture medium (FUJIFILM Wako Pure Chemical Corporation) had been added was used. Subsequently, the cells were cultured for 6 weeks and a calcium assay which will be described later was performed.
In the case of the 3D spheroid-cultured nerve cells, each spheroid was transferred to a plate for measurement, a calcium-sensitive fluorescent dye (Cal-520AM, (AAT Bioquest, Inc.)), Pluronic F-127 (AAT Bioquest, Inc.), and the drug were added to the culture medium, and the fluorescence was measured at intervals of 0.5 seconds for 20 minutes using a fluorescence plate reader to measure the calcium spikes.
By setting the proportion of the change in number of the calcium spikes in a case where dimethyl sulfoxide (DMSO) used as a solvent for the drug was added to 0%, in a case where the number of the calcium spikes increased due to the addition of the drug, the value is shown to be positive, and in a case where the number of the calcium spikes decreased due to the addition of the drug, the value is shown to be negative.
A calcium assay was performed in the presence of a drug, using spheroids with different numbers of cells, and the drug responsiveness of the nerve cells was examined. Human iPSC-derived nerve cells (Excitatory Neurons, Elixirgen Scientific, Inc.) and human-derived primary cultured astrocytes (ScienCell Research Laboratories, Inc.) were mixed so that the number of cells per well was 8,000 for the nerve cells and 8,000 for the astrocytes, 4,000 for the nerve cells and 4,000 for the astrocytes, or 2,000 for the nerve cells and 2,000 for the astrocytes, and seeded on a plate for producing a spheroid. As the culture medium, Neurobasal Plus (Thermo Fisher Scientific, Inc.) to which B-27 Plus Supplement (Thermo Fisher Scientific, Inc.), Glutamax (Thermo Fisher Scientific, Inc.), 200 μM ascorbic acid (FUJIFILM Wako Pure Chemical Corporation), and a 10% Neuron Culture medium (FUJIFILM Wako Pure Chemical Corporation) had been added was used. Subsequently, the cells were cultured for 5 weeks, and a calcium assay was performed in the same manner as in Experimental Example 1. Chlorpromazine was used as the drug.
The values in the graph indicate the mean value±the standard deviation. The horizontal axis of the graph indicates the concentration of chlorpromazine in the culture medium, and the vertical axis of the graph indicates a relative value of the number of the calcium spikes in a case where dimethyl sulfoxide (DMSO) used as a solvent for the drug was added, with the number of the calcium spikes set to 100%. […] 0% indicates a state in which the calcium spikes completely disappear.
A calcium assay was performed in the same manner as in Experimental Example 2, except that the drug was changed to GABA and the number of cells constituting the spheroid was changed to 16,000 or 4,000, and the drug responsiveness of the nerve cells was examined.

[2] = system: 2D-cultured nerve cells (human iPSC-derived nerve cells and human-derived primary cultured astrocytes); assay: Calcium assay in 2D-cultured nerve cells (number of calcium spikes); assay type: cell-based; conditions: cultured 6 weeks, Experimental Example 1, FIG. 1
Protocol: Human iPSC-derived nerve cells (Excitatory Neurons, Elixirgen Scientific, Inc.) and human-derived primary cultured astrocytes (ScienCell Research Laboratories, Inc.) were seeded in a 384-well plate so that the number of cells per well was 10,000 for the nerve cells and 2,500 for the astrocytes. As the culture medium, Neurobasal Plus (Thermo Fisher Scientific, Inc.) to which B-27 Plus Supplement (Thermo Fisher Scientific, Inc.), Glutamax (Thermo Fisher Scientific, Inc.), 200 µM ascorbic acid (FUJIFILM Wako Pure Chemical Corporation), and a 10% Neuron Culture medium (FUJIFILM Wako Pure Chemical Corporation) had been added was used. Subsequently, the cells were cultured for 6 weeks and a calcium assay which will be described later was performed.
A calcium assay was performed in the presence of a drug to examine the drug responsiveness of the 2D-cultured nerve cells and the 3D spheroid-cultured nerve cells. Chlorpromazine was used as the drug.
In the case of the 2D-cultured nerve cells, a calcium-sensitive fluorescent dye (Cal-520AM, AAT Bioquest, Inc.) and a drug were added to the culture medium, and the fluorescence was measured at intervals of 0.5 seconds for 20 minutes using a fluorescence plate reader to measure the calcium spikes.
FIG. 1 is a graph showing the measurement results. The values in the graph indicate the mean value±the standard deviation. […]

[3] = spheroid of 4,000 cells, compared with 16,000 cells
[4] = spheroid of 4,000 cells, Experimental Examples 2-3, FIG. 2-3, chlorpromazine at 1 μM and 3 μM
[5] = spheroid of 8,000 cells, Experimental Examples 2-3, FIG. 2-3, chlorpromazine at 1 μM and 3 μM
[6] = spheroid of 16,000 cells, Experimental Examples 2-3, FIG. 2-3, chlorpromazine at 1 μM and 3 μM

Row | SMILES | relative value (log 2) of a change in number of the calcium spikes (DMSO = 0) [1, 3] | relative value of the number of the calcium spikes (DMSO set to 100%) [1, 4] | relative value of the number of the calcium spikes (DMSO set to 100%) [1, 5] | relative value of the number of the calcium spikes (DMSO set to 100%) [1, 6] | also measured
1 | CN1CCc2cc3c(cc2[C@H]1[C@@H]1OC(=O)c2c1ccc1c2OCO1)OCO3 [bicuculine] | drug responsiveness was exhibited in a concentration-dependent manner | an increase in the number of the calcium spikes was observed in a concentration-dependent manner | a significant response was not observed | an increase in the number of the calcium spikes was not observed at any concentration | relative value of the number of the calcium spikes (DMSO set to 100%) ([1]; spheroid of 8,000 cells, drug at 30 μM, Experimental Example 3, FIG. 3): a tendency of an increase in the number of the calcium spikes was observed; relative value (log 2) of a change in number of the calcium spikes (DMSO = 0) ([1]; spheroid of 16,000 cells): no drug response was observed
2 | NCCc1ccc(O)c(O)c1 [dopamine] | the action was exhibited at a lower concentration and a stronger action was exhibited at 4,000 cells in a concentration-dependent manner | – | – | – | –
3 | NC(=O)N1c2ccccc2C=Cc2ccccc21 [carbamazepine] | the action was exhibited at a lower concentration and a stronger action was exhibited at 4,000 cells in a concentration-dependent manner | – | – | – | –
4 | NCCCC(=O)O [GABA, γ-aminobutyric acid] | the action was exhibited at a lower concentration and a stronger action was exhibited at 4,000 cells in a concentration-dependent manner | – | – | – | –
5 | CN(C)CCCN1c2ccccc2Sc2ccc(Cl)cc21 [chlorpromazine, Chlorpromazine] | the action was exhibited at a lower concentration and a stronger action was exhibited at 4,000 cells in a concentration-dependent manner | showed a concentration-dependent response | did not show a concentration-dependent response | did not show a concentration-dependent response | number of the calcium spikes (proportion of change vs DMSO) ([2]; 2D culture, 10,000 nerve cells and 2,500 astrocytes per well): the number of the calcium spikes decreased in a drug concentration-dependent manner; concentration at which the calcium spikes disappeared ([2]; 2D culture): 3 µM; change in number of the calcium spikes (vs DMSO) ([1]; 3D spheroid, 8,000 nerve cells + 8,000 astrocytes, cultured 6 weeks, Experimental Example 1, FIG. 1): no change in number of the calcium spikes was observed at any drug concentration
6 | N#Cc1cc2c(cc1[N+](=O)[O-])=NC(=O)C(=O)N=2 [CNQX, 6-cyano-7-nitroquinoxaline-2,3-dione] | the action was exhibited at a lower concentration and a stronger action was exhibited at 4,000 cells in a concentration-dependent manner | – | – | – | –
